What was measured:
NEK7 protein = NEK7 protein (Homo sapiens, UniProt Q8TDX7+Q96SW2); assay: NEK7 protein degradation determined by Western blot in human PBMC-derived macrophages; format: cell-based; conditions: 24 h; for remaining NEK7 protein amount at 10 µM: densitometric values normalized to loading control, read-out: Amount of NEK7 protein (% of DMSO control); for NEK7 protein degradation (Western blotting, in words): FIG. 1
Procedure: Macrophages were differentiated from human PBMCs isolated from buffy coats from healthy donors.
Buffy coats were diluted 1:1 (v/v) with DPBS (Sigma-Aldrich) in falcon tubes. After reconstitution, suspension was carefully layered on Histopaque-1077 solution (Sigma-Aldrich) and centrifuged (760×g, RT, 20 min; Brakes Off). PBMCs were collected and washed with DPBS (3× at 350×g, RT, 8 min and 1× at 200×g, RT, 10 min; Brakes On). Subsequently, cells were resuspended in appropriate volume of RPMI 1640 medium (Gibco) supplemented with 10% of heat-inactivated FBS (Gibco) and 1% of Penicillin-Streptomycin Solution 100x (Biowest). Cell viability was measured using trypan blue solution (Sigma-Aldrich).
10×10^6 of PBMCs per well were seeded on 6-well plates in complete medium supplemented with 10 ng/ml of M-CSF growth factor (R&D Systems). Differentiation was conducted for a week with medium replacement every 2-3 days. Differentiation of PBMCs into mature macrophages was confirmed by microscopic evaluation and FACS surface staining for the following markers: CD11b, CD14, CD16 (BD Pharmingen). Differentiated macrophages were subjected on NLRP3 inflammasome activation assay.
Human PBMC-derived macrophages were pre-treated for 24 h with exemplary compounds at the specific concentrations. Dilutions of tested compound were prepared in DMSO. Afterwards cells were primed with 1 μg/ml of LPS (Invivogen) for 3 h and NLRP3 inflammasomes were activated with 5 μM of nigericin solution (Invivogen) for 1 h. Supernatants were centrifuged and stored for ELISA assays and cell lysates were prepared for Western blotting analysis.
Cell lysates from Human PBMC-derived macrophages were prepared by direct lysis in 40 μl RIPA lysis buffer (50 mM Tris·HCl pH 7.4, 150 mM NaCl, 1% NP-40, 0.25% sodium deoxycholate, 0.1% SDS and 1 mM EDTA) supplemented with protease and phosphatase inhibitors (cOmplete EDTA-free Protease Inhibitor Cocktail, Roche; Halt™ Phosphatase Inhibitor Cocktail, Thermo Scientific). Subsequently, lysates were snap frozen in liquid nitrogen and stored in −20° C. Following thawing, lysates were centrifuged at 4° C., 19 000×g for 15 min for supernatants collection. The protein concentration in each sample was determined by BCA method (Pierce BCA Protein Assay Kit, Thermo Fischer Scientific). The absorbance was measured using CLARIOstar Multimode Plate Reader at 562 nm. SDS-PAGE samples were prepared by mixing the lysates with 5×SB and RIPA buffer. Denaturation of the samples was performed by incubation at 95° C. for 5 minutes.
The protein samples were resolved on 4-20% TGX Stain-Free™ protein gels (Bio-Rad) and transferred onto nitrocellulose membranes (Bio-Rad) using Trans-Blot® Turbo system (Bio-Rad). Membranes were blocked in 5% non-dried milk (NFM) in TBS-T (10 mM Tris, 150 mM NaCl, 0.1% Tween-20) for 1 h at room temperature (RT). Membranes were incubated with primary antibodies for NEK7 (O/N, 4° C.) and loading control—β-Actin (1 h, RT) diluted in 5% NFM in TBS-T, followed by incubation with the appropriate horseradish peroxidase (HRP) conjugated secondary antibody diluted in 5% NFM in TBS-T for 1 h in RT. Between each antibody incubation, the membranes were washed in TBS-T. Membranes were developed using SuperSignal West Pico PLUS chemiluminescent substrate (ThermoScientific). Membrane images were captured using Chemi Doc Imager. The analysis was performed in Image Lab software. Densitometric values for NEK7 protein were normalized to the loading control and calculated as a relative to the cells treated with DMSO control.
NEK7-HiBiT degradation results were further confirmed for selected compounds in human PBMC-derived macrophages.

NEK7-HiBiT protein = NEK7-HiBiT protein (Homo sapiens, UniProt Q8TDX7); assay: NEK7-HiBiT degradation assay (Nano-Glo HiBiT Lytic Assay) in HEK293 NEK7-HiBiT cells; format: cell-based; conditions: 24 h, conc. 0.1, 1 and 10 μM tested, concentration of the table values not stated, mean of 3 technical replicates
Chain of NEK7-HiBiT protein (Q8TDX7 whole entry): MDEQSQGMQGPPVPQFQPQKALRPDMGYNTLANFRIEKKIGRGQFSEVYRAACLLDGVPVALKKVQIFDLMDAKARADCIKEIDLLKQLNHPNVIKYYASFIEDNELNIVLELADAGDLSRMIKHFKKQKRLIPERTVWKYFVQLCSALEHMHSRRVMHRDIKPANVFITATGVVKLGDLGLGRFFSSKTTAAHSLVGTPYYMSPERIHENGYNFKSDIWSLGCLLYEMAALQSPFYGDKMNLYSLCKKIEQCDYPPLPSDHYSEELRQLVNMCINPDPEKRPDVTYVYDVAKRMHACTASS
Chain of NEK7-HiBiT protein (Q96SW2 whole entry, further chain): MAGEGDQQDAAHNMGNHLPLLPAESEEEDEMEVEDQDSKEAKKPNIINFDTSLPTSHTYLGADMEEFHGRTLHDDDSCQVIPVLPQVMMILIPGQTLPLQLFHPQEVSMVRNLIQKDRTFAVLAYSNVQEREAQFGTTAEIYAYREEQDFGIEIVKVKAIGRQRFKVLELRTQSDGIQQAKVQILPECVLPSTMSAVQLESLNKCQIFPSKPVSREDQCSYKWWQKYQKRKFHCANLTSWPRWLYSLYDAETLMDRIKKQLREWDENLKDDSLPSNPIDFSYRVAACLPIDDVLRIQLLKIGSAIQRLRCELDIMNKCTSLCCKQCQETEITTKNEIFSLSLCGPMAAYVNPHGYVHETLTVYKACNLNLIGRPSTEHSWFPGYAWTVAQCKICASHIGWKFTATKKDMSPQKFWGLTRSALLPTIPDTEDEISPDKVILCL
Chain of NEK7-HiBiT protein (Q16531 whole entry partner): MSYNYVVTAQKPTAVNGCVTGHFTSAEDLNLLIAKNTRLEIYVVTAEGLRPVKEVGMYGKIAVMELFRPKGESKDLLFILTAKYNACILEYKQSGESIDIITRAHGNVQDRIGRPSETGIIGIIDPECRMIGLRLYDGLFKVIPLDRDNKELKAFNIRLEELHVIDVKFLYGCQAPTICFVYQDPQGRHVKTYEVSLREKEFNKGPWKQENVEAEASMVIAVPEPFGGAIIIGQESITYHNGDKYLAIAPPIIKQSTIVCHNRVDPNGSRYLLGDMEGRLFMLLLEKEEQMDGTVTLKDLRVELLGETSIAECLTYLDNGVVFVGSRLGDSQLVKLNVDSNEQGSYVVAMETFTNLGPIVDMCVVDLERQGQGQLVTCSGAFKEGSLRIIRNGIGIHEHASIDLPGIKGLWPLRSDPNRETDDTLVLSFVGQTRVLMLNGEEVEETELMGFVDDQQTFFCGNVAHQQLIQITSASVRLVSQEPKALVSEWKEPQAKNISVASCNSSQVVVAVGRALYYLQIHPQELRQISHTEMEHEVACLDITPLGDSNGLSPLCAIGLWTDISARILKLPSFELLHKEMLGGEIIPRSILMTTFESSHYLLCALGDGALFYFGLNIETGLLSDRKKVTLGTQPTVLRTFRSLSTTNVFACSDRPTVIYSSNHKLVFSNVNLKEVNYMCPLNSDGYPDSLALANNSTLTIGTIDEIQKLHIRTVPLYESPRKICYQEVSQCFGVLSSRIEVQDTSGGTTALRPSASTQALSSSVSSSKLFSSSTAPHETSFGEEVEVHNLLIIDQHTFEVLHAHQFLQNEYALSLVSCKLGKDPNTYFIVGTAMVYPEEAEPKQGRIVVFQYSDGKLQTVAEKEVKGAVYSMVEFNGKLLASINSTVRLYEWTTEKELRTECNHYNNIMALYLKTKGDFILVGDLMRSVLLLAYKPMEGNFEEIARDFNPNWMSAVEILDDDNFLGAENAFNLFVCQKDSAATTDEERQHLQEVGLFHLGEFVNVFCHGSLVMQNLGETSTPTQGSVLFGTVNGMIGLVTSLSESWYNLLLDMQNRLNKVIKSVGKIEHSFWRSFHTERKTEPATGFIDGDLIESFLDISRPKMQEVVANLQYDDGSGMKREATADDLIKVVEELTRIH
Method in brief: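 HEK293 cells with CRISPR knock-in N-terminal HiBiT-tagged NEK7 exposed to compound for 24 h at 37 °C, 5% CO2. Residual NEK7-HiBiT was read as Nano-Glo HiBiT lytic luminescence and expressed as % of DMSO control across triplicates; compounds run at 0.1, 1 and 10 μM.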

Chain of NEK7 protein (Q8TDX7 whole entry): as the sequence (Q8TDX7 whole entry) above
Chain of NEK7 protein (Q96SW2 whole entry): as the sequence (Q96SW2 whole entry, further chain) above
Chain of NEK7 protein (Q16531 whole entry partner): as the sequence (Q16531 whole entry partner) above

| SMILES | remaining NEK7 protein amount at 10 µM (NEK7 protein) | NEK7 protein degradation (Western blotting, in words) (NEK7 protein) | Levels of NEK7-HiBiT Protein (as a % of DMSO control) (NEK7-HiBiT protein) |
| --- | --- | --- | --- |
| O=C1CCC(N2Cc3cc(C4CCCCN4)ccc3C2=O)C(=O)N1 (centres unmarked) [Compound 2, 3-(1-oxo-5-(piperidin-2-yl)isoindolin-2-yl)piperidine-2,6-dione] | 10 to 40% | NEK7 protein degradation | A (Levels of NEK7-HiBiT Protein ≤ 25%) |
| Cc1c(C2CCCCN2)ccc2c1CN(C1CCC(=O)NC1=O)C2=O (centres unmarked) [Compound 19, 3-(4-methyl-1-oxo-5-(piperidin-2-yl)isoindolin-2-yl)piperidine-2,6-dione] | 40 to 75% |  | B (Levels of NEK7-HiBiT Protein > 25% and ≤50%) |
| CC1c2cc(C3CCCCO3)ccc2C(=O)N1C1CCC(=O)NC1=O (centres unmarked) [Compound 64, 3-(3-methyl-1-oxo-5-(tetrahydro-2H-pyran-2-yl)isoindolin-2-yl)piperidine-2,6-dione] | ≤ 10% | NEK7 protein degradation | A (Levels of NEK7-HiBiT Protein ≤ 25%) |
| CC1c2cc(C3CCCCN3)ccc2C(=O)N1C1CCC(=O)NC1=O (centres unmarked) [Compound 25, 3-(3-methyl-1-oxo-5-(piperidin-2-yl)isoindolin-2-yl)piperidine-2,6-dione] | ≤ 10% | NEK7 protein degradation | A (Levels of NEK7-HiBiT Protein ≤ 25%) |
| O=C1CCC(N2Cc3cc(-c4ccccn4)ccc3C2=O)C(=O)N1 (centres unmarked) [2(2), 3-(1-oxo-5-(pyridin-2-yl)isoindolin-2-yl)piperidine-2,6-dione] | 40 to 75% |  | B (Levels of NEK7-HiBiT Protein > 25% and ≤50%) |
| O=C1CCC(N2Cc3cc(-c4ccc(-c5ccccc5)cn4)ccc3C2=O)C(=O)N1 (centres unmarked) [4(2), 3-(1-oxo-5-(5-phenylpyridin-2-yl)isoindolin-2-yl)piperidine-2,6-dione] | 40 to 75% |  | A (Levels of NEK7-HiBiT Protein ≤ 25%) |
| O=C1CCC(N2Cc3cc(C4CCCCN4)c(F)cc3C2=O)C(=O)N1 (centres unmarked) [Compound 23, 3-(6-fluoro-1-oxo-5-(piperidin-2-yl)isoindolin-2-yl)piperidine-2,6-dione] | 40 to 75% |  | B (Levels of NEK7-HiBiT Protein > 25% and ≤50%) |

From patent US20260151403A1, “NEK7 DEGRADERS AND METHODS OF USE THEREOF” (Captor Therapeutics S.A., priority 2022, published 2026)
